Converted amounts (≈) assume the structure as drawn. The source made the active and inactive calls. No cut-off for these calls is given here.
What was measured:
Staphylococcus aureus [1] = experiment: Inhibition of bio-film formation of Staphylococcus aureus MLS16 MTCC 2940 incubated for 24 hrs at 37 degC under static conditions by crystal violet staining method; assay type: functional, organism-based; settings: MLS16 MTCC 2940, 24 h
Micrococcus luteus [2] = experiment: Inhibition of bio-film formation of Micrococcus luteus MTCC 2470 incubated for 24 hrs at 37 degC under static conditions by crystal violet staining method; assay type: functional, organism-based; settings: MTCC 2470, 24 h
Staphylococcus aureus [3] = experiment: Induction of intracellular ROS accumulation in Staphylococcus aureus MLS16 MTCC 2940 sessile biofilm cells at 0.5 to 2 um incubated for 24 hrs at 35 degC by DCFH-DA dye based fluorescence assay; assay type: functional, organism-based
Raoultella planticola [4] = experiment: Inhibition of bio-film formation of Klebsiella planticola MTCC 530 incubated for 24 hrs at 37 degC under static conditions by crystal violet staining method; assay type: functional, organism-based; settings: MTCC 530, 24 h
Bacillus subtilis [5] = experiment: Inhibition of bio-film formation of Bacillus subtilis MTCC 121 incubated for 24 hrs at 37 degC under static conditions by crystal violet staining method; assay type: functional, organism-based; settings: MTCC 121, 24 h
Escherichia coli [6] = experiment: Inhibition of bio-film formation of Escherichia coli MTCC 739 incubated for 24 hrs at 37 degC under static conditions by crystal violet staining method; assay type: functional, organism-based; settings: MTCC 739, 24 h
Raoultella planticola [7] = experiment: Antimicrobial activity against Klebsiella planticola MTCC 530 incubated for 24 hrs at 37 degC by well diffusion method; assay type: functional; settings: MTCC 530, 24 h
Staphylococcus aureus [8] = experiment: Antimicrobial activity against Staphylococcus aureus MLS16 MTCC 2940 incubated for 24 hrs at 37 degC by well diffusion method; assay type: functional; settings: MLS16 MTCC 2940, 24 h
Bacillus subtilis [9] = experiment: Antimicrobial activity against Bacillus subtilis MTCC 121 incubated for 24 hrs at 37 degC by well diffusion method; assay type: functional; settings: MTCC 121, 24 h
Micrococcus luteus [10] = experiment: Antimicrobial activity against Micrococcus luteus MTCC 2470 incubated for 24 hrs at 37 degC by well diffusion method; assay type: functional; settings: MTCC 2470, 24 h
Candida albicans = experiment: Antimicrobial activity against Candida albicans MTCC 3017 incubated for 24 hrs at 30 degC by well diffusion method; assay type: functional; settings: MTCC 3017, 24 h
Escherichia coli [11] = experiment: Antimicrobial activity against Escherichia coli MTCC 739 incubated for 24 hrs at 37 degC by well diffusion method; assay type: functional; settings: MTCC 739, 24 h
Pseudomonas aeruginosa = experiment: Antimicrobial activity against Pseudomonas aeruginosa MTCC 2453 incubated for 24 hrs at 37 degC by well diffusion method; assay type: functional; settings: MTCC 2453, 24 h
Micrococcus luteus [12] = experiment: Bactericidal activity against Micrococcus luteus MTCC 2470 incubated for 24 hrs at 37 degC; assay type: functional; settings: MTCC 2470, 24 h
Staphylococcus aureus [13] = experiment: Bactericidal activity against Staphylococcus aureus MLS16 MTCC 2940 incubated for 24 hrs at 37 degC; assay type: functional; settings: MLS16 MTCC 2940, 24 h
Escherichia coli [14] = experiment: Bactericidal activity against Escherichia coli MTCC 739 incubated for 24 hrs at 37 degC; assay type: functional; settings: MTCC 739, 24 h
Bacillus subtilis [15] = experiment: Bactericidal activity against Bacillus subtilis MTCC 121 incubated for 24 hrs at 37 degC; assay type: functional; settings: MTCC 121, 24 h
Raoultella planticola [16] = experiment: Bactericidal activity against Klebsiella planticola MTCC 530 incubated for 24 hrs at 37 degC; assay type: functional; settings: MTCC 530, 24 h

Row | IC50 (Staphylococcus aureus [1]) | IC50 (Micrococcus luteus [2]) | IC50 (Bacillus subtilis [5]) | IC50 (Escherichia coli [6]) | MIC (Staphylococcus aureus [8]) | MIC (Bacillus subtilis [9]) | MIC (Micrococcus luteus [10]) | MIC (Candida albicans) | MIC (Escherichia coli [11]) | MIC (Pseudomonas aeruginosa) | SMILES | Activity (Staphylococcus aureus [3]) | IC50 (Raoultella planticola [4]) | MIC (Raoultella planticola [7]) | MBC (Micrococcus luteus [12]) | MBC (Staphylococcus aureus [13]) | MBC (Escherichia coli [14]) | MBC (Bacillus subtilis [15]) | MBC (Raoultella planticola [16])
1 | 0.25 µM | 0.31 µM | 0.42 µM | 0.43 µM |  |  |  |  |  |  | CC[C@H]1OC(=O)[C@H](C)[C@@H](O[C@H]2C[C@@](C)(OC)[C@@H](O)[C@H](C)O2)[C@H](C)[C@@H](O[C@@H]2O[C@H](C)C[C@H](N(C)C)[C@H]2O)[C@](C)(O)C[C@@H](C)C(=O)[C@H](C)[C@@H](O)[C@]1(C)O [ERYTHROMYCIN] | Active | 0.35 µM |  |  |  |  |  | 
2 |  |  |  |  | > 125 µg/mL | > 125 µg/mL | > 125 µg/mL | > 125 µg/mL | > 125 µg/mL | > 125 µg/mL | O=C(CCBr)NCC1=Cc2cc(Br)ccc2OC1(O)C(F)(F)F (stereo not drawn) |  |  | > 125 µg/mL |  |  |  |  | 
3 |  |  |  |  | > 125 µg/mL | > 125 µg/mL | > 125 µg/mL | > 125 µg/mL | > 125 µg/mL | > 125 µg/mL | CC(=O)NCC1=Cc2cc(Br)ccc2OC1(O)C(F)(F)F (stereo not drawn) |  |  | > 125 µg/mL |  |  |  |  | 
4 |  |  |  |  | > 125 µg/mL | > 125 µg/mL | > 125 µg/mL | > 125 µg/mL | > 125 µg/mL | > 125 µg/mL | CC(=O)NCC1=Cc2ccccc2OC1(O)C(F)(F)F (stereo not drawn) |  |  | > 125 µg/mL |  |  |  |  | 
5 |  |  |  |  | 2.7 µM | 2.7 µM | 2.7 µM | > 125 µg/mL | 2.7 µM | 2.7 µM | O=C(O)c1cn(C2CC2)c2cc(N3CCNCC3)c(F)cc2c1=O [CIPROFLOXACIN] |  |  | 2.7 µM | 5.7 µM (≈ 1.89 µg/mL) | 2.7 µM (≈ 0.895 µg/mL) | 5.7 µM (≈ 1.89 µg/mL) | 5.7 µM (≈ 1.89 µg/mL) | 2.7 µM (≈ 0.895 µg/mL)
6 | 9.2 µM | 18.4 µM | 22.2 µM | 8.2 µM | 15.6 µM | 31.2 µM | 31.2 µM | > 125 µg/mL | 15.6 µM | > 125 µg/mL | O=C(Cc1cccc(Cl)c1)NCC1=Cc2cc(Br)ccc2OC1(O)C(F)(F)F (stereo not drawn) |  | 24.6 µM | 31.2 µM | 74.2 µM (≈ 35.4 µg/mL) | 37.1 µM (≈ 17.7 µg/mL) | 37.1 µM (≈ 17.7 µg/mL) | 74.2 µM (≈ 35.4 µg/mL) | 74.2 µM (≈ 35.4 µg/mL)
7 |  |  |  |  | > 125 µg/mL | > 125 µg/mL | > 125 µg/mL | > 125 µg/mL | > 125 µg/mL | > 125 µg/mL | O=C(Cc1ccccc1)NCC1=Cc2ccccc2OC1(O)C(F)(F)F (stereo not drawn) |  |  | > 125 µg/mL |  |  |  |  | 
8 |  |  |  |  | > 125 µg/mL | > 125 µg/mL | > 125 µg/mL | > 125 µg/mL | > 125 µg/mL | > 125 µg/mL | O=C(CCCCBr)NCC1=Cc2ccccc2OC1(O)C(F)(F)F (stereo not drawn) |  |  | > 125 µg/mL |  |  |  |  | 
9 |  |  |  |  | > 125 µg/mL |  |  | > 125 µg/mL |  |  | O=C(CCBr)NCC1=Cc2cccc(F)c2OC1(O)C(F)(F)F (stereo not drawn) |  |  |  |  |  |  |  | 
10 | 16.8 µM | 17.4 µM |  |  | > 125 µg/mL | 33.6 µM | > 125 µg/mL | > 125 µg/mL | > 125 µg/mL | > 125 µg/mL | O=C(Cc1ccc(Br)cc1)NCC1=Cc2ccccc2OC1(O)C(F)(F)F (stereo not drawn) |  |  | 33.6 µM | 33.6 µM (≈ 14.9 µg/mL) | 67.2 µM (≈ 29.7 µg/mL) | > 230 µM | > 230 µM | > 230 µM
11 |  |  |  |  | > 125 µg/mL | > 125 µg/mL | > 125 µg/mL | > 125 µg/mL | > 125 µg/mL | > 125 µg/mL | O=C(CCBr)NCC1=Cc2ccccc2OC1(O)C(F)(F)F (stereo not drawn) |  |  | > 125 µg/mL |  |  |  |  | 
12 | 21.9 µM | 19.1 µM |  |  | 33.6 µM | > 125 µg/mL | > 125 µg/mL | > 125 µg/mL | > 125 µg/mL | > 125 µg/mL | O=C(Cc1ccccc1)NCC1=Cc2cc(Br)ccc2OC1(O)C(F)(F)F (stereo not drawn) |  |  | 33.6 µM | 33.6 µM (≈ 14.9 µg/mL) | 67.2 µM (≈ 29.7 µg/mL) | > 230 µM | > 230 µM | > 230 µM
13 |  |  |  |  | > 125 µg/mL | > 125 µg/mL | > 125 µg/mL | 18.7 µM | > 125 µg/mL | > 125 µg/mL | Clc1ccc(COC(Cn2ccnc2)c2ccc(Cl)cc2Cl)c(Cl)c1 (stereo not drawn) [MICONAZOLE] |  |  | > 125 µg/mL |  |  |  |  | 
14 | 3.6 µM | 8.3 µM | 5.1 µM | 10.5 µM | 9.5 µM | 9.5 µM | 19.1 µM | > 125 µg/mL | 19.1 µM | > 125 µg/mL | O=C(CBr)NCC1=Cc2ccccc2OC1(O)C(F)(F)F (stereo not drawn) |  | 12.7 µM | 19.1 µM | 38.3 µM (≈ 14 µg/mL) | 19.1 µM (≈ 6.99 µg/mL) | 38.3 µM (≈ 14 µg/mL) | 19.1 µM (≈ 6.99 µg/mL) | 19.1 µM (≈ 6.99 µg/mL)
15 | 19.7 µM | 17.1 µM | 43.8 µM |  | 37.1 µM | 74.2 µM | > 125 µg/mL | > 125 µg/mL | > 125 µg/mL | > 125 µg/mL | O=C(Cc1cccc(Cl)c1)NCC1=Cc2ccccc2OC1(O)C(F)(F)F (stereo not drawn) |  |  | 37.1 µM | 74.2 µM (≈ 29.5 µg/mL) | 37.1 µM (≈ 14.8 µg/mL) | > 230 µM | 74.2 µM (≈ 29.5 µg/mL) | > 230 µM
16 | 1.2 µM | 1.7 µM | 1.4 µM | 1.4 µM | 4 µM | 4 µM | 8.3 µM | > 125 µg/mL | 8.3 µM | > 125 µg/mL | O=C(CBr)NCC1=Cc2cc(Br)ccc2OC1(O)C(F)(F)F (stereo not drawn) | Active | 1.7 µM | 4 µM | 8.3 µM (≈ 3.69 µg/mL) | 4 µM (≈ 1.78 µg/mL) | 16.6 µM (≈ 7.39 µg/mL) | 4 µM (≈ 1.78 µg/mL) | 8.3 µM (≈ 3.69 µg/mL)
17 | 6.2 µM | 7.7 µM | 8.8 µM | 5.8 µM | 14.3 µM | 14.3 µM | 28.6 µM | > 125 µg/mL | 14.3 µM | > 125 µg/mL | O=C(Cc1ccc(Br)cc1)NCC1=Cc2cc(Br)ccc2OC1(O)C(F)(F)F (stereo not drawn) |  | 14.8 µM | 14.3 µM | 28.6 µM (≈ 14.9 µg/mL) | 14.3 µM (≈ 7.45 µg/mL) | 14.3 µM (≈ 7.45 µg/mL) | 28.6 µM (≈ 14.9 µg/mL) | 57.3 µM (≈ 29.9 µg/mL)
18 |  |  |  |  | > 125 µg/mL | > 125 µg/mL | > 125 µg/mL | > 125 µg/mL | > 125 µg/mL | > 125 µg/mL | O=C(CCCCBr)NCC1=Cc2cc(Br)ccc2OC1(O)C(F)(F)F (stereo not drawn) |  |  | > 125 µg/mL |  |  |  |  | 

From ChEMBL document CHEMBL3596103, “Synthesis of novel amide functionalized 2H-chromene derivatives by Ritter amidation of primary alcohol using HBF4·OEt2 as a mild and versatile reagent and evaluation of their antimicrobial and anti-biofilm activities” (Bioorg Med Chem Lett, 2015)
